Measured values reported in article PMC7156458, “Synthetic biology based construction of biological activity-related library of fungal decalin-containing diterpenoid pyrones” (Nature Communications, 2020).
Like-named read-outs stand apart in the source and are kept apart here.

What was measured:
l(2)mbn cells = assay: cytotoxicity in Drosophila l(2)mbn cells; assay type: cell-based; details: for Luminescence Raw1: replicate 1; for Luminescence Raw2: replicate 2; for IC50: Drosophila melanogaster, cytotoxicity
Experimental: (§1) We screened the DDPs on the Drosophila assay system for cytotoxicity, inhibitory activity of innate immune signalling and insecticidal activity. The cytotoxicity of the DDPs was evaluated using two cell lines, embryonic macrophage-derived DL1 cells[58]–[60] and larval blood cell-derived l(2)mbn cells, and their IC50 values are listed in Supplementary Table 23.

[1] = cytotoxicity in Drosophila l(2)mbn cells; assay type: cell-based; details: Drosophila, l(2)mbn cells (larval blood cell-derived)
Experimental: as §1

DL1 cells = assay: cytotoxicity in Drosophila DL1 cells; assay type: cell-based; details: DL1 cells; for IC50: Drosophila melanogaster, cytotoxicity
Experimental: as §1

[2] = cytotoxicity in Drosophila DL1 cells; assay type: cell-based; details: Drosophila, DL1 cells (embryonic macrophage-derived), DL1 cells
Experimental: as §1

MAGI cells = assay: cytotoxicity in the anti-HIV assay (CC50); assay type: cell-based; details: single determinations
SF-539 = assay: cells; parameters: species or system JFCR39 human cancer cell lines; JFCR39 panel growth inhibition, sulforhodamine B total protein after 48 h; details: Homo sapiens, SF-539, 48 h
Procedure, shortened: (§2)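 Human cancer lines from the JFCR39 panel were cultured in RPMI-1640 with 5% FBS and 1 µg mL-1 kanamycin at 37°C, 5% CO2. Cells were exposed to compound for 48 hours, and growth was measured as total cellular protein by sulforhodamine B staining; GI50 from duplicate assays.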

SK-OV-3 = assay: cells; parameters: species or system JFCR39 human cancer cell lines; JFCR39 panel growth inhibition, sulforhodamine B total protein after 48 h; details: Homo sapiens, SK-OV-3, 48 h
Procedure, shortened: as §2

SNB-75 = assay: cells; parameters: species or system JFCR39 human cancer cell lines; JFCR39 panel growth inhibition, sulforhodamine B total protein after 48 h; details: Homo sapiens, SNB-75, 48 h
Procedure, shortened: as §2

MCF-7 cells = assay: cell cytotoxic effects against MCF-7 cells (72 h), A490; assay type: cell-based, human; details: for viability at 0.1 µM / viability at 1 µM / viability at 10 µM: Homo sapiens, MCF7, 72 h, read-out: A490 (control =1) ave; for viability at 0.1 µM / viability at 1 µM / viability at 10 µM / A490 ave: MCF-7, 72 h
[3] = average of two replicates, read-out: IC50 Average
[4] = replicate 1, read-out: IC50 (1)
[5] = replicate 2, read-out: IC50 (2)
[6] = replicate 1, relative to DMSO 1%, read-out: % viability, viability 1
[7] = replicate 2, relative to DMSO 1%, read-out: % viability, viability 2
[8] = 0.1 µM (DMSO 0.002%), control 1.064
[9] = 1 µM (DMSO 0.02%), control 1.104
[10] = 10 µM (DMSO 0.2%), control 1.049

For `C=C1CCC2C(C)(CCC=C(C)C)C(O)CCC2(C)C1Cc1c(OC)oc(CO)c(C(=O)OC)c1=O` (stereo not shown) [Compound 13], the “Luminescence Raw1” value (l(2)mbn cells; 0.04 µM) was 3699578, the “Luminescence Raw2” value (l(2)mbn cells; 0.04 µM) was 3900517 and the “Luminescence Raw1” value (l(2)mbn cells; 0.2 µM) was 4107234. For the same compound, the “Luminescence Raw2” value (l(2)mbn cells; 0.2 µM) was 3571875, the “Luminescence Raw1” value (l(2)mbn cells; 1 µM) was 4025701 and the “Luminescence Raw2” value (l(2)mbn cells; 1 µM) was 3137197. The “Luminescence Raw1” value (l(2)mbn cells; 4 µM) was 2332844, the “Luminescence Raw2” value (l(2)mbn cells; 4 µM) was 2029883 and the “Luminescence Raw1” value (l(2)mbn cells; 10 µM) was 535109. The “Luminescence Raw2” value (l(2)mbn cells; 10 µM) was 623453, the “Luminescence Raw1” value (l(2)mbn cells; 20 µM) was 280543 and the “Luminescence Raw2” value (l(2)mbn cells; 20 µM) was 241241. The IC50 (l(2)mbn cells; [3]) was 8460 nM, the IC50 (l(2)mbn cells; average±SEM, read-out: IC50) was 8460 ± 980 nM and the IC50 (l(2)mbn cells; [4]) was 9440 nM. The IC50 (l(2)mbn cells; [5]) was 7470 nM, the viability at 0.04 µM [1, 6] was 144% and the viability at 0.04 µM [1, 7] was 152%. For the same compound, the viability at 0.2 µM [1, 6] was 160%, the viability at 0.2 µM [1, 7] was 139% and the viability at 1 µM [1, 6] was 157%. For the same compound, the viability at 1 µM [1, 7] was 122%, the viability at 4 µM [1, 6] was 90.9% and the viability at 4 µM [1, 7] was 79.1%. For the same compound, the viability at 10 µM [1, 6] was 20.9%, the viability at 10 µM [1, 7] was 24.3% and the viability at 20 µM [1, 6] was 10.9%. The viability at 20 µM [1, 7] was 9.4%, the “Luminescence Raw1” value (DL1 cells; 0.04 µM, replicate 1) was 2061595 and the “Luminescence Raw2” value (DL1 cells; 0.04 µM, replicate 2) was 2096579. The “Luminescence Raw1” value (DL1 cells; 0.2 µM, replicate 1) was 1624487, the “Luminescence Raw2” value (DL1 cells; 0.2 µM, replicate 2) was 1452825 and the “Luminescence Raw1” value (DL1 cells; 1 µM, replicate 1) was 197587. The “Luminescence Raw2” value (DL1 cells; 1 µM, replicate 2) was 202634, the “Luminescence Raw1” value (DL1 cells; 4 µM, replicate 1) was 125835 and the “Luminescence Raw2” value (DL1 cells; 4 µM, replicate 2) was 104201. For the same compound, the “Luminescence Raw1” value (DL1 cells; 10 µM, replicate 1) was 148189, the “Luminescence Raw2” value (DL1 cells; 10 µM, replicate 2) was 124032 and the “Luminescence Raw1” value (DL1 cells; 20 µM, replicate 1) was 95187. For the same compound, the “Luminescence Raw2” value (DL1 cells; 20 µM, replicate 2) was 81125, the IC50 (DL1 cells; [3]) was 292 nM and the IC50 (DL1 cells; average±SEM, read-out: IC50) was 290 ± 20 nM. It also gave an IC50 (DL1 cells; [4]) of 311 nM, an IC50 (DL1 cells; [5]) of 273 nM and a viability at 0.04 µM [2, 6] of 100%. The viability at 0.04 µM [2, 7] was 102%, the viability at 0.2 µM [2, 6] was 78.9% and the viability at 0.2 µM [2, 7] was 70.5%. The viability at 1 µM [2, 6] was 9.59%, the viability at 1 µM [2, 7] was 9.84% and the viability at 4 µM [2, 6] was 6.11%. It also gave a viability at 4 µM [2, 7] of 5.06%, a viability at 10 µM [2, 6] of 7.19% and a viability at 10 µM [2, 7] of 6.02%. For the same compound, the viability at 20 µM [2, 6] was 4.62%, the viability at 20 µM [2, 7] was 3.94% and the Cytotoxicity (MAGI cells) was >10 µM. The GI50 (SF-539) was 19400 nM, the GI50 (SK-OV-3) was 16300 nM and the GI50 (SNB-75) was 18800 nM. It also gave a viability at 0.1 µM (MCF-7 cells; 0.1 µM (DMSO 0.002%)) of 89.1%, a viability at 1 µM (MCF-7 cells; 1 µM (DMSO 0.02%)) of 106% and a viability at 10 µM (MCF-7 cells; 10 µM (DMSO 0.2%)) of 98.6%. It also gave an A490 ave (MCF-7 cells; [8]) of 0.948, an A490 ave (MCF-7 cells; [9]) of 1.176 and an A490 ave (MCF-7 cells; [10]) of 1.034.

With `C=C1CC[C@@H]2[C@](C)(CC[C@H]3O[C@H](C=C(C)C)C[C@@]23C)[C@@H]1Cc1c(OC)oc(CO)c(C)c1=O` [Compound 20] the “Luminescence Raw1” value (l(2)mbn cells; 0.04 µM) was 6010744, the “Luminescence Raw2” value (l(2)mbn cells; 0.04 µM) was 6416731 and the “Luminescence Raw1” value (l(2)mbn cells; 0.2 µM) was 6637959. The “Luminescence Raw2” value (l(2)mbn cells; 0.2 µM) was 7047592, the “Luminescence Raw1” value (l(2)mbn cells; 1 µM) was 4464964 and the “Luminescence Raw2” value (l(2)mbn cells; 1 µM) was 5080853. The “Luminescence Raw1” value (l(2)mbn cells; 4 µM) was 97218, the “Luminescence Raw2” value (l(2)mbn cells; 4 µM) was 136159 and the “Luminescence Raw1” value (l(2)mbn cells; 10 µM) was 118130. For the same compound, the “Luminescence Raw2” value (l(2)mbn cells; 10 µM) was 110559, the “Luminescence Raw1” value (l(2)mbn cells; 20 µM) was 87844 and the “Luminescence Raw2” value (l(2)mbn cells; 20 µM) was 128947. The IC50 (l(2)mbn cells; [3]) was 1450 nM, the IC50 (l(2)mbn cells; average±SEM, read-out: IC50) was 1450 ± 130 nM and the IC50 (l(2)mbn cells; [4]) was 1320 nM. For the same compound, the IC50 (l(2)mbn cells; [5]) was 1580 nM, the viability at 0.04 µM [1, 6] was 95.7% and the viability at 0.04 µM [1, 7] was 102%. The viability at 0.2 µM [1, 6] was 106%, the viability at 0.2 µM [1, 7] was 112% and the viability at 1 µM [1, 6] was 71.1%. The viability at 1 µM [1, 7] was 80.9%, the viability at 4 µM [1, 6] was 1.55% and the viability at 4 µM [1, 7] was 2.17%. It also gave a viability at 10 µM [1, 6] of 1.88%, a viability at 10 µM [1, 7] of 1.76% and a viability at 20 µM [1, 6] of 1.4%. The viability at 20 µM [1, 7] was 2.05%, the “Luminescence Raw1” value (DL1 cells; 0.04 µM, replicate 1) was 2619350 and the “Luminescence Raw2” value (DL1 cells; 0.04 µM, replicate 2) was 2864984. For the same compound, the “Luminescence Raw1” value (DL1 cells; 0.2 µM, replicate 1) was 2345231, the “Luminescence Raw2” value (DL1 cells; 0.2 µM, replicate 2) was 2278506 and the “Luminescence Raw1” value (DL1 cells; 1 µM, replicate 1) was 282109. The “Luminescence Raw2” value (DL1 cells; 1 µM, replicate 2) was 273095, the “Luminescence Raw1” value (DL1 cells; 4 µM, replicate 1) was 279585 and the “Luminescence Raw2” value (DL1 cells; 4 µM, replicate 2) was 290402. For the same compound, the “Luminescence Raw1” value (DL1 cells; 10 µM, replicate 1) was 280667, the “Luminescence Raw2” value (DL1 cells; 10 µM, replicate 2) was 263720 and the “Luminescence Raw1” value (DL1 cells; 20 µM, replicate 1) was 281027. For the same compound, the “Luminescence Raw2” value (DL1 cells; 20 µM, replicate 2) was 336916, the IC50 (DL1 cells; [3]) was 269 nM and the IC50 (DL1 cells; average±SEM, read-out: IC50) was 270 ± 30 nM. For the same compound, the IC50 (DL1 cells; [4]) was 299 nM, the IC50 (DL1 cells; [5]) was 238 nM and the viability at 0.04 µM [2, 6] was 191%. For the same compound, the viability at 0.04 µM [2, 7] was 209%, the viability at 0.2 µM [2, 6] was 171% and the viability at 0.2 µM [2, 7] was 166%. For the same compound, the viability at 1 µM [2, 6] was 20.6%, the viability at 1 µM [2, 7] was 19.9% and the viability at 4 µM [2, 6] was 20.4%. It also gave a viability at 4 µM [2, 7] of 21.2%, a viability at 10 µM [2, 6] of 20.5% and a viability at 10 µM [2, 7] of 19.2%. The viability at 20 µM [2, 6] was 20.5%, the viability at 20 µM [2, 7] was 24.6% and the Cytotoxicity (MAGI cells) was >10 µM. It also gave a GI50 (SF-539) of 12300 nM, a GI50 (SK-OV-3) of 13300 nM and a GI50 (SNB-75) of 16400 nM. For the same compound, the “cytotoxicity against the bulk of MCF-7 cells” value (MCF-7 cells) was “dose-dependent cytotoxicity”, the viability at 0.1 µM (MCF-7 cells; 0.1 µM (DMSO 0.002%)) was 90% and the viability at 1 µM (MCF-7 cells; 1 µM (DMSO 0.02%)) was 45.3%. For the same compound, the viability at 10 µM (MCF-7 cells; 10 µM (DMSO 0.2%)) was 29.4%, the A490 ave (MCF-7 cells; [8]) was 0.958 and the A490 ave (MCF-7 cells; [9]) was 0.500. The A490 ave (MCF-7 cells; [10]) was 0.308.
